The nature of data set [1]: refractive index (Na D-line) (dimensionless). The following applies: 293.15 K; 101.33 kPa; Liquid; Standard Abbe refractometry.
The conditions of data set [2]: Liquid; for mass density: 293.15 K, 101.33 kPa; for Normal boiling temperature: Ebulliometric method (Recirculating still).

± gives the expanded uncertainty stated by the source.

Three compounds from the NIST ThermoML archive (doi:10.1016/j.jct.2005.03.017) can be followed below.

Usually refractive index stands for a measure of how strongly the sample bends light. Broadly, the mass density is mass per unit of volume.

Turning to `O=C1CCCCC1` [cyclohexanone], in data set [1], the refractive index was found to be 1.451 ± 0.0008. In data set [2], the mass density came out at 947.3 ± 0.6 kg/m3 and the Normal boiling temperature turned out to be 155.54 ± 0.1 °C.

In the case of `CCC(=O)O` [propanoic acid], the refractive index in data set [1] came out at 1.3811 ± 0.0008. Besides, in data set [2], the mass density is recorded as 992.7 ± 0.5 kg/m3 and the Normal boiling temperature was 141.0 ± 0.1 °C.

Turning to `O` [water], the refractive index in data set [1] is reported as 1.3326 ± 0.0008. The Normal boiling temperature in data set [2] was 100.08 ± 0.1 °C.
